Source: PubChem BioAssay AID330 (DTP/NCI, 2004)
Where “and” joins values, the source holds several entries; their conditions need not be identical. Equal entries are not always repeated. Inconclusive results and toxic doses are left out.

Test system: P388 leukemia ip, CD2F1 mice, survival T/C
Assay: NCI In Vivo Anticancer Drug Screen. Data for tumor model P388 Leukemia (intraperitoneal) in CD2F1 (CDF1) mice
Conditions: endpoint: median survival time, higher = longer survival
Procedure, shortened: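 Mice carrying the transplanted tumor received test compound or vehicle. Survival was recorded in each group, and the value is the treated-group measurement divided by that of the vehicle-treated control group.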

[1] = dose: 60.0 mg/kg/injection, schedule: Q01DX005 (ip), vehicle: saline with Tween-80
[2] = dose: 120.0 mg/kg/injection, schedule: Q01DX005 (ip), vehicle: saline with Tween-80
[3] = dose: 240.0 mg/kg/injection, schedule: Q01DX005 (ip), vehicle: saline with Tween-80
[4] = dose: 50.0 mg/kg/injection, schedule: Q01DX009 (ip), vehicle: saline with Tween-80
[5] = dose: 100.0 mg/kg/injection, schedule: Q01DX009 (ip), vehicle: saline with Tween-80

CNC=O
T/C (dose: 80.0 mg/kg/injection, schedule: Q01DX005 (ip), vehicle: water): 108 % of control | T/C (dose: 160.0 mg/kg/injection, schedule: Q01DX005 (ip), vehicle: water): 115 % of control | T/C (dose: 197.6 mg/kg/injection, schedule: Q01DX005 (ip), vehicle: saline): 116 % of control | T/C (dose: 197.6 mg/kg/injection, schedule: Q01DX005 (iv), vehicle: saline): 120 % of control | T/C (dose: 296.3 mg/kg/injection, schedule: Q01DX005 (ip), vehicle: water): 107 % of control | T/C (dose: 296.5 mg/kg/injection, schedule: Q01DX001 (ip), vehicle: saline): 101 % of control | T/C (dose: 296.5 mg/kg/injection, schedule: Q01DX001 (iv), vehicle: saline): 100 % of control | T/C (dose: 320.0 mg/kg/injection, schedule: Q01DX005 (ip), vehicle: water): 118 % of control | T/C (dose: 444.4 mg/kg/injection, schedule: Q01DX005 (ip), vehicle: water): 122 % of control | T/C (dose: 444.5 mg/kg/injection, schedule: Q01DX001 (ip), vehicle: saline): 104 % of control | T/C (dose: 444.5 mg/kg/injection, schedule: Q01DX001 (iv), vehicle: saline): 103 % of control | T/C (dose: 444.5 mg/kg/injection, schedule: Q01DX001 (oral), vehicle: saline): 103 % of control | T/C (dose: 444.5 mg/kg/injection, schedule: Q01DX009 (ip), vehicle: saline): 98 % of control | T/C (dose: 444.5 mg/kg/injection, schedule: Q01DX009 (oral), vehicle: saline): 173 % of control | T/C (dose: 666.7 mg/kg/injection, schedule: Q01DX001 (ip), vehicle: saline): 107 % of control | T/C (dose: 666.7 mg/kg/injection, schedule: Q01DX001 (iv), vehicle: saline): 111 % of control | T/C (dose: 666.7 mg/kg/injection, schedule: Q01DX001 (oral), vehicle: saline): 114 % of control | T/C (dose: 666.7 mg/kg/injection, schedule: Q01DX005 (ip), vehicle: saline): 156 % of control | T/C (dose: 666.7 mg/kg/injection, schedule: Q01DX005 (ip), vehicle: water): 166 % of control | T/C (dose: 666.7 mg/kg/injection, schedule: Q01DX009 (ip), vehicle: saline): 93 % of control | T/C (dose: 666.7 mg/kg/injection, schedule: Q01DX009 (oral), vehicle: saline): 98 % of control | T/C (dose: 1000.0 mg/kg/injection, schedule: Q01DX001 (ip), vehicle: saline): 116 % of control | T/C (dose: 1000.0 mg/kg/injection, schedule: Q01DX001 (iv), vehicle: saline): 119 % of control | T/C (dose: 1000.0 mg/kg/injection, schedule: Q01DX001 (oral), vehicle: saline): 116 % of control | T/C (dose: 1000.0 mg/kg/injection, schedule: Q01DX005 (iv), vehicle: saline): 86 % of control | T/C (dose: 1000.0 mg/kg/injection, schedule: Q01DX005 (oral), vehicle: saline): 95 % of control | T/C (dose: 1000.0 mg/kg/injection, schedule: Q01DX009 (oral), vehicle: saline): 98 % of control | T/C (dose: 1280.0 mg/kg/injection, schedule: Q01DX005 (ip), vehicle: water): 161 % of control | T/C (dose: 1500.0 mg/kg/injection, schedule: Q01DX001 (ip), vehicle: saline): 120 % of control | T/C (dose: 1500.0 mg/kg/injection, schedule: Q01DX005 (oral), vehicle: saline): 86 % of control

O=C(Nc1ccc(Cl)c(Cl)c1)N1CC=CC1
T/C (dose: 100.0 mg/kg/injection, schedule: Q04DX003 (ip), vehicle: Klucel (hydroxypropylcellulose) (HPC)): 101 % of control | T/C (dose: 200.0 mg/kg/injection, schedule: Q04DX003 (ip), vehicle: Klucel (hydroxypropylcellulose) (HPC)): 96 % of control | T/C (dose: 400.0 mg/kg/injection, schedule: Q04DX003 (ip), vehicle: Klucel (hydroxypropylcellulose) (HPC)): 94 % of control

O=C(O)/C=C/C(=O)N1Cc2cc3ccccc3nc2C1
T/C (dose: 1.56 mg/kg/injection, schedule: Q01DX009 (ip), vehicle: saline with Tween-80): 100 % of control and 101 % of control and 104 % of control | T/C (dose: 3.13 mg/kg/injection, schedule: Q01DX009 (ip), vehicle: saline with Tween-80): 99 % of control and 103 % of control and 117 % of control | T/C (dose: 6.25 mg/kg/injection, schedule: Q01DX009 (ip), vehicle: saline with Tween-80): 101 % of control and 94 % of control | T/C (dose: 8.0 mg/kg/injection, schedule: Q01DX009 (ip), vehicle: saline with Tween-80): 91 % of control | T/C (dose: 12.5 mg/kg/injection, schedule: Q01DX009 (ip), vehicle: saline with Tween-80): 98 % of control and 99 % of control and 107 % of control | T/C (dose: 16.0 mg/kg/injection, schedule: Q01DX009 (ip), vehicle: saline with Tween-80): 94 % of control | T/C (dose: 32.0 mg/kg/injection, schedule: Q01DX009 (ip), vehicle: saline with Tween-80): 99 % of control | T/C (dose: 64.0 mg/kg/injection, schedule: Q01DX009 (ip), vehicle: saline with Tween-80): 94 % of control

COc1ccc(C[Se][Se]Cc2ccc(OC)cc2)cc1
T/C (dose: 6.25 mg/kg/injection, schedule: Q01DX009 (ip), vehicle: Klucel (hydroxypropylcellulose) (HPC)): 99 % of control | T/C (dose: 12.5 mg/kg/injection, schedule: Q01DX009 (ip), vehicle: Klucel (hydroxypropylcellulose) (HPC)): 108 % of control | T/C (dose: 25.0 mg/kg/injection, schedule: Q01DX009 (ip), vehicle: Klucel (hydroxypropylcellulose) (HPC)): 106 % of control

NS(=O)(=O)c1ccc(NC(=O)c2cccnc2Nc2cccc(Cl)c2)cc1
T/C [1]: 103 % of control | T/C [2]: 102 % of control | T/C [3]: 101 % of control

CCC1(c2ccccc2)SC(=O)NC1=O (stereo not given)
T/C [4]: 91 % of control | T/C [5]: 91 % of control | T/C (dose: 200.0 mg/kg/injection, schedule: Q01DX009 (ip), vehicle: saline with Tween-80): 98 % of control

CCCCN(CCCC)S(=O)(=O)N1CCCCC1
T/C (dose: 50.0 mg/kg/injection, schedule: Q04DX002 (ip), vehicle: saline): 105 % of control | T/C (dose: 100.0 mg/kg/injection, schedule: Q04DX002 (ip), vehicle: saline): 98 % of control | T/C (dose: 200.0 mg/kg/injection, schedule: Q04DX002 (ip), vehicle: saline): 96 % of control | T/C (dose: 400.0 mg/kg/injection, schedule: Q04DX002 (ip), vehicle: saline): 100 % of control

CCC1(C)CC(=O)NC(=O)C1
T/C (dose: 2.5 mg/kg/injection, schedule: Q01DX009 (ip), vehicle: saline with Tween-80): 95 % of control | T/C (dose: 5.0 mg/kg/injection, schedule: Q01DX009 (ip), vehicle: saline with Tween-80): 95 % of control | T/C (dose: 10.0 mg/kg/injection, schedule: Q01DX009 (ip), vehicle: saline with Tween-80): 86 % of control

CCOC(=O)NC(=Cc1ccccn1)c1ccc(Cl)cc1 (mixture of isomers)
T/C [1]: 103 % of control | T/C [2]: 97 % of control | T/C [3]: 93 % of control

O=C(Nc1cccc(Cl)c1Cl)OCCCc1ccncc1
T/C [4]: 100 % of control | T/C [5]: 100 % of control

COC(=O)Cn1/c(=N\N=C(/C)c2ccc(C)cc2)sc2ccccc21
T/C (dose: 100.0 mg/kg/injection, schedule: Q01DX001 (ip), vehicle: saline with Tween-80): 95 % of control | T/C (dose: 200.0 mg/kg/injection, schedule: Q01DX001 (ip), vehicle: saline with Tween-80): 91 % of control

S=P(Oc1cc(Cl)cc(Cl)c1)(Oc1cc(Cl)cc(Cl)c1)Oc1cc(Cl)cc(Cl)c1
T/C (dose: 50.0 mg/kg/injection, schedule: Q01DX005 (ip), vehicle: Klucel (hydroxypropylcellulose) (HPC)): 97 % of control | T/C (dose: 100.0 mg/kg/injection, schedule: Q01DX005 (ip), vehicle: Klucel (hydroxypropylcellulose) (HPC)): 100 % of control | T/C (dose: 200.0 mg/kg/injection, schedule: Q01DX005 (ip), vehicle: Klucel (hydroxypropylcellulose) (HPC)): 100 % of control

CC(=O)NCC(=O)c1ccc(Cl)cc1
T/C (dose: 100.0 mg/kg/injection, schedule: Q04DX003 (ip), vehicle: saline with Tween-80): 120 % of control | T/C (dose: 200.0 mg/kg/injection, schedule: Q04DX003 (ip), vehicle: saline with Tween-80): 120 % of control | T/C (dose: 400.0 mg/kg/injection, schedule: Q04DX003 (ip), vehicle: saline with Tween-80): 105 % of control

CN(C)C(=O)c1cccc(COc2ccc(N3C(N)=NC(N)=NC3(C)C)cc2Cl)c1
T/C (dose: 4.0 mg/kg/injection, schedule: Q01DX001 (ip), vehicle: saline): 96 % of control | T/C (dose: 8.0 mg/kg/injection, schedule: Q01DX001 (ip), vehicle: saline): 99 % of control | T/C (dose: 8.0 mg/kg/injection, schedule: Q01DX009 (ip), vehicle: saline): 107 % of control | T/C (dose: 16.0 mg/kg/injection, schedule: Q01DX001 (ip), vehicle: saline): 95 % of control | T/C (dose: 16.0 mg/kg/injection, schedule: Q01DX009 (ip), vehicle: saline): 100 % of control | T/C (dose: 16.0 mg/kg/injection, schedule: Q08DX002 (ip), vehicle: saline): 100 % of control | T/C (dose: 32.0 mg/kg/injection, schedule: Q01DX001 (ip), vehicle: saline): 93 % of control | T/C (dose: 32.0 mg/kg/injection, schedule: Q01DX009 (ip), vehicle: saline): 111 % of control | T/C (dose: 32.0 mg/kg/injection, schedule: Q08DX002 (ip), vehicle: saline): 110 % of control | T/C (dose: 64.0 mg/kg/injection, schedule: Q01DX001 (ip), vehicle: saline): 96 % of control
